Blank lines part the entries; values can stand above or below the compound they belong to.
How the values were obtained:
[1] = tested on: Huh7; assay: Cytotoxicity on human cells, Huh7 (liver); format: cell-based; details: Huh-7, human cells, exposed 24 h and 48 h, 0.1 to 25 μM
Procedure: (§1) […] Dosages on Human cells (Huh7, Caco, MDA-MB 231, HCT 116, PC3, NCl, Fibroblast)
(§2) Cytotoxicity: This method is based on an automated imaging analysis. 4.10^3 cells were cultivated on 96-well plates and thus left for 24 hours so that they may bind, be distributed and proliferate.
(§3) These cells were then exposed for 24 h and 48 h to increasing concentrations of the compounds of the invention, from 0.1 to 25 μM in a final volume of 80 μL of culture medium. The cells are then set with a 4% paraformaldehyde solution and the nuclei are colored with Hoechst 3342 and counted according to automated imaging quantification.
(§4) All the cell lines were cultivated in a DMEM or RPMI (Invitrogen) medium. All these media were completed with antibiotics (penicillin-streptomycin)(Lonza) and 10% by volume of foetal calf serum (Invitrogen). The cells were cultivated at 37° C. with 5% of CO2. The treatments with the molecules to be tested were carried out with increasing concentrations. […] The control experiments were also conducted by using suitable dilutions of DMSO (maximum 1% DMSO). Cell viability was determined by measuring the reduction of MTS as described in the article of Ribas J, Boix J. (2004). Cell differentiation caspase inhibition and macromolecular synthesis blockage but not BCL-2 or BCL-XL proteins protect SH-SY5Y cells from apoptosis triggered by two CDK inhibitory drugs. Exp. Cell Res., 295: 9-24.

[2] = tested on: Caco; assay: Cytotoxicity on human cells, Caco (colon); format: cell-based; details: exposed 24 h and 48 h, 0.1 to 25 μM
Procedure: as §1, §2, §3, §4

[3] = tested on: MDA-MB 231; assay: Cytotoxicity on human cells, MDA-MB 231 (breast); format: cell-based; details: MDA-MB-231, human cells, exposed 24 h and 48 h, 0.1 to 25 μM
Procedure: as §1, §2, §3, §4

[4] = tested on: HCT 116; assay: Cytotoxicity on human cells, HCT 116 (colon); format: cell-based; details: exposed 24 h and 48 h, 0.1 to 25 μM
Procedure: as §1, §2, §3, §4

[5] = tested on: PC3; assay: Cytotoxicity on human cells, PC3 (prostate); format: cell-based; details: PC-3, human cells, exposed 24 h and 48 h, 0.1 to 25 μM
Procedure: as §1, §2, §3, §4

[6] = tested on: NCI; assay: Cytotoxicity on human cells, NCI (lung); format: cell-based; details: exposed 24 h and 48 h, 0.1 to 25 μM
Procedure: as §1, §2, §3, §4

[7] = tested on: fibroblast; assay: Cytotoxicity on human cells, fibroblast; format: cell-based; details: exposed 24 h and 48 h, 0.1 to 25 μM
Procedure: as §1, §2, §3, §4

[8] = target: DYRK1A (Homo sapiens, UniProt Q13627); assay: DYRK1A kinase inhibition (Woodtide substrate, buffer A); format: biochemical; details: 15 μM ATP, 30° C., recombinant GST fusion; read-out: IC50 Kinases DYRK1A
Procedure: (§5) The activities for inhibiting protein kinases of the compounds of the invention are tested according to the following general procedure:
(§6) Buffer A: 10 mM MgCl2, 1 mM EGTA, 1 mM DTT, 25 mM Tris-HCl pH 7.5 and 50 μg heparin/mL.
(§7) The kinase activities are dosed in buffers A or C, at 30° C., at a final concentration of ATP of 15 μM. The values of the blanks were subtracted and the activities are expressed as a % of the maximum activity, i.e. in the absence of inhibitors. The controls were carried out with suitable dilutions of DMSO.

[9] = target: T1, CDK5 (Homo sapiens, UniProt Q00535); assay: CDK5 kinase inhibition (histone H1, [γ-33P] ATP, buffer C); format: biochemical; details: 15 μM ATP, 30° C., recombinant; read-out: IC50 Kinases CDK5
T1 construct: made in house
Procedure: as §5
Buffer C: 60 mM β-glycerophosphate, 15 mM p-nitrophenyl-phosphate, 25 mM Mops (pH 7.2), 5 mM EGTA, 15 mM MgCl2, 1 mM DTT, 1 mM of sodium vanadate
as §7
CDK5 (humane, recombinant) was prepared as described earlier (Leclerc, S.; Garnier, M.; Hoessel, R.; Marko, D.; Bibb, J. A.; Snyder, G. L.; Greengard, P.; Biernat, J.; Mandelkow, E.-M.; Eisenbrand, G.; Meijer, L. Indirubins inhibit glycogen synthase kinase-3β and CDK5/p25, two kinases involved in abnormal tau phosphorylation in Alzheimer's disease—A property common to most CDK inhibitors? J. Biol. Chem. 2001, 276, 251-260; Bach S, Knockaert M, Reinhardt J, Lozach O, Schmitt S, Baratte B et al. (2005). Roscovitine targets, protein kinases and pyridoxal kinase. J. Biol Chem 280: 31208-31219). Its kinase activity was analyzed in the buffer C, with 1 mg of histone H1/mL, in the presence of 15 μM of [γ-^33P] ATP (3,000 Ci/mmol; 10 mCi/mL) in a final volume of 30 μl. After 30 mins of incubation at 30° C., 25 μl of supernatant aliquots were deposited on 2.5×3 cm pieces of phosphocellulose Whatman P81 paper, and after 20 seconds, the filters were washed five times (for at least 5 minutes every time) in a solution of 10 mL phosphoric acid/liter of water. The wet filters were counted in the presence of 1 mL of ACS scintillator fluid (Amersham).

[10] = target: GSK-3αβ; assay: GSK-3αβ kinase inhibition (GS-1 substrate, buffer A); format: biochemical; details: 15 μM ATP, 30° C., native, pig brain; read-out: IC50 Kinases GSK3
Procedure: as §5, §6, §7
GSK-3αβ (from pig brain, native) was assayed by using a specific substrate of GSK-3 (GS-1: […]pEDEEE)(Sp represents a phosphorylated serine) (Primot, A., Baratte, B., Gompel, M., Borgne, A., Liabeuf, S., Romette, J. L., Costantini, F. and Meijer, L., 2000. Purification of GSK-3 by affinity chromatography on immobilized axin. Protein Expr. & Purif. 20 (3), 394-404). GS-1 was synthesized by Millegen (Labège, France). Its kinase activity was analyzed in the buffer A, with 1 mg of histone H1/mL, in the presence of 15 μM of [γ-^33P] ATP (3,000 Ci/mmol; 10 mCi/mL) in a final volume of 30 μl. After 30 mins of incubation at 30° C., 25 μl of supernatant aliquots were deposited on 2.5×3 cm pieces of phosphocellulose Whatman P81papier, and after 20 seconds, the filters were washed five times (for at least 5 minutes every time) in a solution of 10 mL of phosphoric acid/liter of water. The wet filters were counted in the presence of 1 mL of ACS scintillator fluid (Amersham).

T1 sequence (Q00535 whole entry): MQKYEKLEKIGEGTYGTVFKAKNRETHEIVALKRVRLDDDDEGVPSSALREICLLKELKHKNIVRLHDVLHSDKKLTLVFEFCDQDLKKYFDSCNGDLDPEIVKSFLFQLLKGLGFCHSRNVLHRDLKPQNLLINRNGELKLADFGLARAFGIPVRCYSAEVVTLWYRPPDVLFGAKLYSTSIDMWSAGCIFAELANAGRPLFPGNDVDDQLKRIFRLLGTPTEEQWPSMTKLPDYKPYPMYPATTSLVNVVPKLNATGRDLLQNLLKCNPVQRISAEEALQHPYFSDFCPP
T1 sequence (Q15078 99-307 partner limits assumed): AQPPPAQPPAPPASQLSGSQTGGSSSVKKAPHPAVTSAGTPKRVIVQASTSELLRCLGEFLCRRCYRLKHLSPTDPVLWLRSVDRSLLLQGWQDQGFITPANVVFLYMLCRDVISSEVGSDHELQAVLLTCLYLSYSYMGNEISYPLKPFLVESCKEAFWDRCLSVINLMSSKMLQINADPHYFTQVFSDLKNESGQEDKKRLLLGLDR

SMILES: Oc1ccc(Nc2ncc3ncc(-c4cccc(O)c4)cc3n2)cc1 [Compound 61, 2-(4-Hydroxyphenylamino)-7-(3-hydroxyphenyl)-pyrido[3,2-d]pyrimidine]
- IC50 [1]: 10 µM
- IC50 [2]: 12 µM
- IC50 [3]: 9 µM
- IC50 [4]: 12 µM
- IC50 [5]: 7 µM
- IC50 [6]: 4 µM
- IC50 [7]: 2 µM
- IC50 [8]: > 10 µM
- IC50 [9]: 0.71 µM
- IC50 [10]: 4.5 µM
- melting point: > 268 °C

SMILES: CS(=O)(=O)c1ccc(-c2cnc3cnc(-c4ccc(O)cc4)nc3c2)cc1 [Compound 26, 2-(4-Hydroxyphenyl)-7-(4-methanesulfonylphenyl)-pyrido[3,2-d]pyrimidine]
- IC50 [1]: > 25 µM
- IC50 [2]: > 25 µM
- IC50 [3]: > 25 µM
- IC50 [4]: > 25 µM
- IC50 [5]: > 25 µM
- IC50 [6]: > 25 µM
- IC50 [7]: > 25 µM
- IC50 [8]: > 10 µM
- IC50 [9]: 0.48 µM
- IC50 [10]: > 100 µM
- melting point: 306 to 307 °C

SMILES: Oc1ccc(-c2ncc3ncc(-c4cccnc4)cc3n2)cc1 [Compound 33, 2-(4-Hydroxyphenyl)-7-(3-pyridinyl)-pyrido[3,2-d]pyrimidine]
- IC50 [1]: > 25 µM
- IC50 [2]: > 25 µM
- IC50 [3]: > 25 µM
- IC50 [4]: > 25 µM
- IC50 [5]: > 25 µM
- IC50 [6]: > 25 µM
- IC50 [7]: > 25 µM
- IC50 [8]: > 10 µM
- IC50 [9]: 0.65 µM
- IC50 [10]: > 10 µM
- melting point: > 268 °C

SMILES: Oc1ccc(Nc2ncc3ncc(-c4ccc(O)cc4)cc3n2)cc1 [Compound 62, 2-(4-Hydroxyphenylamino)-7-(4-hydroxyphenyl)-pyrido[3,2-d]pyrimidine]
- IC50 [1]: 12 µM
- IC50 [2]: 15 µM
- IC50 [3]: 10 µM
- IC50 [4]: 12 µM
- IC50 [5]: 15 µM
- IC50 [6]: 4 µM
- IC50 [7]: 5 µM
- IC50 [8]: > 10 µM
- IC50 [9]: 0.84 µM
- IC50 [10]: 7.1 µM
- melting point: > 268 °C

SMILES: Oc1ccccc1-c1cnc2cnc(-c3ccccc3O)nc2c1 [Compound 22, 2,7-Di-(2-hydroxyphenyl)-pyrido[3,2-d]pyrimidine]
- IC50 [1]: > 25 µM
- IC50 [2]: > 25 µM
- IC50 [3]: > 25 µM
- IC50 [4]: > 25 µM
- IC50 [5]: > 25 µM
- IC50 [6]: 2 µM
- IC50 [7]: > 25 µM
- IC50 [8]: > 10 µM
- IC50 [9]: > 10 µM
- IC50 [10]: > 10 µM
- melting point: 239 to 240 °C

SMILES: CC(=O)c1ccc(Nc2cnc3c(NCc4ccccc4)nc(NCCO)nc3c2)cc1 [Compound 86, 4-Benzylamino-7-(4-acetylphenylamino)-2-(2-hydroxyethylamino)-pyrido[3,2-d]pyrimidine]
- IC50 [1]: 2 µM
- IC50 [2]: 3 µM
- IC50 [3]: 15 µM
- IC50 [4]: 1 µM
- IC50 [5]: 3 µM
- IC50 [6]: 2 µM
- IC50 [7]: 5 µM
- IC50 [8]: > 10 µM
- IC50 [9]: > 10 µM
- IC50 [10]: > 10 µM
- melting point: 125 to 126 °C

More lines, main results first:

- IC50 [8]: 2.4 µM
- IC50 [9]: 0.11 µM
- IC50 [10]: > 100 µM
- melting point: 256 to 257 °C
SMILES: Oc1ccc(-c2ncc3ncc(-c4cccc(O)c4)cc3n2)cc1 [Compound 23, 2-(4-Hydroxyphenyl)-7-(3-hydroxyphenyl)-pyrido[3,2-d]pyrimidine]
- IC50 [1]: 10 µM
- IC50 [2]: 4 µM
- IC50 [3]: > 25 µM
- IC50 [4]: 7 µM
- IC50 [5]: 9 µM
- IC50 [6]: 20 µM
- IC50 [7]: > 25 µM

- IC50 [8]: > 10 µM
- IC50 [9]: 3.7 µM
- IC50 [10]: > 10 µM
- melting point: 262 to 264 °C
SMILES: Oc1ccc(Nc2ncc3ncc(-c4ccccc4O)cc3n2)cc1 [Compound 60, 2-(4-Hydroxyphenylamino)-7-(2-hydroxyphenyl)-pyrido[3,2-d]pyrimidine]
- IC50 [1]: 6 µM
- IC50 [2]: 4 µM
- IC50 [3]: 10 µM
- IC50 [4]: 8 µM
- IC50 [5]: 20 µM
- IC50 [6]: 5 µM
- IC50 [7]: 5 µM

- IC50 [8]: > 10 µM
- IC50 [9]: > 10 µM
- IC50 [10]: > 10 µM
- melting point: 186 to 188 °C
SMILES: Cc1ncccc1Nc1cnc2cnc(-c3ccc(O)cc3)nc2c1 [Compound 53, 2-(4-Hydroxyphenyl)-7-(3-(2-methyl)-pyridinylamino)-pyrido[3,2-d]pyrimidine]
- IC50 [1]: 12 µM
- IC50 [2]: 15 µM
- IC50 [3]: 9 µM
- IC50 [4]: > 25 µM
- IC50 [5]: 6 µM
- IC50 [6]: 15 µM
- IC50 [7]: 10 µM

- IC50 [8]: > 10 µM
- IC50 [9]: 1.2 µM
- IC50 [10]: > 10 µM
- melting point: 246 to 248 °C
SMILES: COc1ccc(-c2cnc3cnc(-c4ccc(O)cc4)nc3c2)cn1 [Compound 32, 2-(4-Hydroxyphenyl)-7-(3-(6-methoxy)-pyridinyl)-pyrido[3,2-d]pyrimidine]
- IC50 [1]: > 25 µM
- IC50 [2]: > 25 µM
- IC50 [3]: 25 µM
- IC50 [4]: > 25 µM
- IC50 [5]: > 25 µM
- IC50 [6]: 25 µM
- IC50 [7]: 10 µM

- IC50 [8]: 16 µM
- IC50 [9]: 5.1 µM
- IC50 [10]: > 100 µM
- melting point: 231 to 232 °C
SMILES: Oc1ccc(-c2ncc3ncc(Cl)cc3n2)cc1 [Compound 17, 7-Chloro-2-(4-hydroxyphenyl)-pyrido[3,2-d]pyrimidine]
- IC50 [1]: > 25 µM
- IC50 [2]: > 25 µM
- IC50 [3]: > 25 µM
- IC50 [4]: > 25 µM
- IC50 [5]: > 25 µM
- IC50 [6]: > 25 µM
- IC50 [7]: > 25 µM

- IC50 [8]: 3.4 µM
- IC50 [9]: 2.6 µM
- IC50 [10]: > 100 µM
- melting point: 264 to 265 °C
SMILES: Oc1cccc(-c2cnc3cnc(-c4cccc(O)c4)nc3c2)c1 [Compound 21, 2,7-Di-(3-hydroxyphenyl)-pyrido[3,2-d]pyrimidine]
- IC50 [1]: > 25 µM
- IC50 [2]: 20 µM
- IC50 [3]: > 25 µM
- IC50 [4]: > 25 µM
- IC50 [5]: 25 µM
- IC50 [6]: > 25 µM
- IC50 [7]: > 25 µM

— patent US20130109693A1, “DERIVATIVES OF PYRIDO [3,2-D] PYRIMIDINE, METHODS FOR PREPARATION THEREOF AND THERAPEUTIC USES THEREOF” (UNIVERSITE D'ORLEANS, priority 2010, published 2013)
